Data on five substances can be found in patent publication US12559487B2, “Crosslinked optically active secondary amine derivative” (Sumitomo Pharma Co., Ltd., priority 2019, dated 2026).

Data set [1] concerns the target hERG (human Ether-a-go-go Related Gene) (Homo sapiens (Human), UniProt Q12809).
Another data set concerns MV4; 11 cells. Description: Test 1: Test for evaluating the inhibition of cell proliferation. The conditions noted are these: cultured for 7 days, PrestoBlue cell viability. In kind it is cell-based. The protocol:
MV4; 11 cells were obtained from American Type Culture Collection (ATCC). The cells were cultured at 37° C. in the presence of 5% CO2 in RPMI 1640 medium containing 10% fetal bovine serum and 1% penicillin/streptomycin.
The cells were plated to a 96-well plate in 2000 cells/well, each test compound was added thereto to adjust the final concentration of DMSO to 0.1% of DMSO, and the cells were cultured for 7 days. After the cultivation, the cell viability was calculated with PrestoBlue™ Cell Viability Reagent (Invitrogen, A13261).

Chain of hERG (human Ether-a-go-go Related Gene) (Q12809 whole entry): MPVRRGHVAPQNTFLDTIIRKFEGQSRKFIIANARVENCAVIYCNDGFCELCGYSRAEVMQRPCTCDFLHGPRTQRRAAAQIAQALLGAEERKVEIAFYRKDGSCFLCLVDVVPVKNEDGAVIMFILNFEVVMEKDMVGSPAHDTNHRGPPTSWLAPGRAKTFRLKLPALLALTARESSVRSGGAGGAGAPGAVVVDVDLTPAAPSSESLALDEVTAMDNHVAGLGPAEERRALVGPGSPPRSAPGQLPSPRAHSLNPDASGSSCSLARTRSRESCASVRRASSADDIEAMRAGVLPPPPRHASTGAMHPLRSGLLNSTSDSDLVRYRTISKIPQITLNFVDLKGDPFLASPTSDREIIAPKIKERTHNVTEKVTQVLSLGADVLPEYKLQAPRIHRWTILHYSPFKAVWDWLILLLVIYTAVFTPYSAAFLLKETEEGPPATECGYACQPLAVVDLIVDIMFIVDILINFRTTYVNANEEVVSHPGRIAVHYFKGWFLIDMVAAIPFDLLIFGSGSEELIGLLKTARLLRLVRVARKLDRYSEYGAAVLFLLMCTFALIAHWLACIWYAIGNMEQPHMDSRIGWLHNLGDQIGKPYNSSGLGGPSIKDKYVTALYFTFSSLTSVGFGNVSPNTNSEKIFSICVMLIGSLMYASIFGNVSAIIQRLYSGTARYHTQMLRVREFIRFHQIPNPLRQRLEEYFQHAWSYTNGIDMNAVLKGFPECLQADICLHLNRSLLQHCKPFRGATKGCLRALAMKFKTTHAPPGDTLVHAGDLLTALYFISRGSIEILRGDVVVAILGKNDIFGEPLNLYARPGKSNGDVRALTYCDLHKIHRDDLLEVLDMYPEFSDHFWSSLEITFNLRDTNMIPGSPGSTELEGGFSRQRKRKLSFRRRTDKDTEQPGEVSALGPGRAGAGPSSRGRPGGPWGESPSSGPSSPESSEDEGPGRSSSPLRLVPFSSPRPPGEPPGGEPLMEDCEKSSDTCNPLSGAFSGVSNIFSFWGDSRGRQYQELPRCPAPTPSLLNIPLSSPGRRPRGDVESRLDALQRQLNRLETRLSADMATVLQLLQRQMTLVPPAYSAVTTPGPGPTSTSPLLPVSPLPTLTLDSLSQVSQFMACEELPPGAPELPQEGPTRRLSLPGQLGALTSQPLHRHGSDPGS

For “2-(3-{8-[(3S)-2-azabicyclo[2.2.2]octane-3-carbonyl]-8-azabicyclo[3.2.1]octan-3-yl}-1H-pyrrolo[2,3-c]pyridin-1-yl)-5-fluoro-N-methyl-N-(propan-2-yl)benzamide [Example 20]”, the “hERG/MV4; 11” value in data set [1] worked out at 373. The substance further yielded an IC50 in the data set on MV4; 11 cells of 85 nM.

In the case of “2-(3-{1-[(3S)-2-azabicyclo[2.2.2]octane-3-carbonyl]azepan-4-yl}-1H-pyrrolo[2,3-c]pyridin-1-yl)-5-fluoro-N-methyl-N-(propan-2-yl)benzamide [Example 11]”, in data set [1], the “hERG/MV4; 11” value was above 1287. The substance also returned an IC50 in the data set with MV4; 11 cells below 30 nM.

In the case of “2-[3-({1-[(3S)-2-azabicyclo[2.2.2]octane-3-carbonyl]pyrrolidin-3-yl}methyl)-1H-pyrrolo[2,3-c]pyridin-1-yl]-5-fluoro-N-methyl-N-(propan-2-yl)benzamide [Example 25]”, the “hERG/MV4; 11” value in data set [1] was determined as 334. In the data set on MV4; 11 cells, this substance returned an IC50 of 29 nM.

In the case of “5-fluoro-2-(3-{1-[(1S,3S,4R)-5-methylidene-2-azabicyclo[2.2.2]octane-3-carbonyl]piperidin-4-yl}-1H-pyrrolo[2,3-c]pyridin-1-yl)-N,N-di(propan-2-yl)benzamide [Example 5]”, the “hERG/MV4; 11” value in data set [1] was 589. This substance also displayed an IC50 in the data set on MV4; 11 cells of 35 nM.

Regarding “2-[3-({1-[(3S)-2-azabicyclo[2.2.2]octane-3-carbonyl]piperidin-4-yl}methyl)-1H-pyrrolo[2,3-c]pyridin-1-yl]-5-fluoro-N-methyl-N-(propan-2-yl)benzamide [Example 27]”, in data set [1], the “hERG/MV4; 11” value is given as above 128. The substance further showed an IC50 with MV4; 11 cells of 780 nM.

The term IC50 denotes the concentration that inhibits the measured activity by half. Low values mean greater potency in that assay, high ones weaker potency in that assay.
